In one series the test system is P388. The experiment in a line: Cytotoxicity against mouse P388 cells. In kind it is functional, cell-based.
The test system of the next series is Escherichia coli. The experiment in a line: Antimicrobial activity against Escherichia coli at 60 ug/disk. The format is functional, organism-based.
Series [1] in a line: Cytotoxicity against african green monkey BSC1 cells at 10 ug. The format is cell-based. To be noted: chlorocebus aethiops, bsc-1.
The subject of a further series is Poliovirus 1. Nature of the series: Antiviral activity against Poliovirus type 1 in african green monkey BSC1 cells assessed as inhibition of virus-induced cytopathic effect. The format is functional, organism-based. To be noted: BSC-1. For orientation: Cytopathic effects are the visible damage that an infection or toxin causes in cultured cells.
The subject of another series is Pseudomonas aeruginosa. Nature of the series: Antimicrobial activity against Pseudomonas aeruginosa at 60 ug/disk. In kind it is functional, organism-based.
Another series has as its system Candida albicans. Nature of the series: Antimicrobial activity against Candida albicans at 60 ug/disk. The format is functional, organism-based.
Series [2] has as its system Trichophyton mentagrophytes. Nature of the series: Antimicrobial activity against Trichophyton mentagrophytes at 60 ug/disk. In kind it is functional, organism-based.
The test system of a further series is Bacillus subtilis. Nature of the series: Antimicrobial activity against Bacillus subtilis at 60 ug/disk. The format is functional, organism-based.
Another series relates to Human alphaherpesvirus 1. Nature of the series: Antiviral activity against HSV1 in african green monkey BSC1 cells assessed as inhibition of virus-induced cytopathic effect. In kind it is functional, organism-based. To be noted: BSC-1.

Each structure is given as a SMILES string. Values after ≈ are worked out from the molar mass of the structure shown. Active and inactive are the calls of the source. The calls are words filed in the database; no cut-off is given here.

One may read the IC50 as the concentration at which inhibition is half-maximal. For the compound `COc1cc(CC=C(C)C)c(OC)c2ccccc12`, in the series with P388, the IC50 was above 25 mg/L.

Take `CC(C)=CCC12OC1C(=O)c1ccccc1C2=O` (configuration not stated): the result in the series on Escherichia coli, with Poliovirus 1, in the series on Pseudomonas aeruginosa and in the series on Human alphaherpesvirus 1 was inactive. The outcome in series [1] was Active. For the same compound, the outcome (in the series with Candida albicans; in series [2]; in the series with Bacillus subtilis) was Active. In the series on P388, the half-maximal inhibitory concentration (IC50) was 0.8 mg/L (≈ 3.3 µM).

The compound `CC(C)=CCC1(CC=C(C)C)CC(=O)c2ccccc2C1=O` yielded an IC50 with P388 above 12.5 mg/L.

In the case of `COC1(OC)c2ccccc2C(=O)C2(CC=C(C)C)OC21` (racemic), in the series on P388, the IC50 is above 12.5 mg/L.

Consider `CC(C)=CCC1=CC(=O)c2ccccc2C1=O` [DEOXYLAPACHOL], for which the result in the series with Escherichia coli, with Poliovirus 1, in the series on Pseudomonas aeruginosa and with Human alphaherpesvirus 1 was inactive. Besides, the result in [1] was Active. Further, the outcome (in the series with Candida albicans; in [2]; with Bacillus subtilis) was Active. This compound registered an IC50 in the series with P388 of 0.6 mg/L (≈ 2.65 µM).

In the series on P388, `CC(C)=CCC1=C(O)C(=O)c2ccccc2C1=O` [LAPACHOL] came in with an IC50 of 0.2 mg/L (≈ 0.826 µM).

For the origin of these results see ChEMBL document CHEMBL1158967, “A cytotoxic and antifungal 1,4-naphthoquinone and related compounds from a New Zealand brown algae, Landsburgia quercifolia” (J Nat Prod, 1991).
